In PubChem BioAssay AID1918938 (Molecular Pharmacology Branch, DTP, NCI, 2023):

Test system: 556581-035-R-J1-PDC complex spheroid viability
Experiment: Anticancer human tumor 556581-035-R-J1-PDC patient-derived ovarian carcinoma cell line growth inhibition
Details: for IC50: curve of first compound; for viability, T/C: stronger effect = lower value; active = viability on the fitted dose curve at most 10% of control; inactive = the rest
Method in brief: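 Complex spheroids of tumor cells with HUVEC and human MSCs, exposed to iadademstat combined with other agents. Each agent tested in half-log steps from near clinical Cmax (else 10 microM top), DMSO ≤0.25%.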

[1] = second compound 0.1 µM, first compound 0.0316 µM
[2] = second compound 0.1 µM, first compound 0.1 µM
[3] = second compound 0.1 µM, first compound 0.316 µM
[4] = second compound 0.1 µM, first compound 1 µM
[5] = second compound 0.1 µM, first compound 3.16 µM
[6] = second compound 0.1 µM, first compound 10 µM
[7] = second compound 0.316 µM, first compound 0.0316 µM
[8] = second compound 0.316 µM, first compound 0.1 µM
[9] = second compound 0.316 µM, first compound 0.316 µM
[10] = second compound 0.316 µM, first compound 1 µM
[11] = second compound 0.316 µM, first compound 3.16 µM
[12] = second compound 0.316 µM, first compound 10 µM
[13] = second compound 1 µM, first compound 0.0316 µM
[14] = second compound 1 µM, first compound 0.1 µM
[15] = second compound 1 µM, first compound 0.316 µM
[16] = second compound 1 µM, first compound 1 µM
[17] = second compound 1 µM, first compound 3.16 µM
[18] = second compound 1 µM, first compound 10 µM
[19] = second compound 3.16 µM, first compound 0.0316 µM
[20] = second compound 3.16 µM, first compound 0.1 µM
[21] = second compound 3.16 µM, first compound 0.316 µM
[22] = second compound 3.16 µM, first compound 1 µM
[23] = second compound 3.16 µM, first compound 3.16 µM
[24] = second compound 3.16 µM, first compound 10 µM
[25] = second compound 10 µM, first compound 0.0316 µM
[26] = second compound 10 µM, first compound 0.1 µM
[27] = second compound 10 µM, first compound 0.316 µM
[28] = second compound 10 µM, first compound 1 µM
[29] = second compound 10 µM, first compound 3.16 µM
[30] = second compound 10 µM, first compound 10 µM
[31] = second compound 0.1 µM, first compound 0.00316 µM
[32] = second compound 0.1 µM, first compound 0.01 µM
[33] = second compound 0.316 µM, first compound 0.00316 µM
[34] = second compound 0.316 µM, first compound 0.01 µM
[35] = second compound 1 µM, first compound 0.00316 µM
[36] = second compound 1 µM, first compound 0.01 µM
[37] = second compound 3.16 µM, first compound 0.00316 µM
[38] = second compound 3.16 µM, first compound 0.01 µM
[39] = second compound 10 µM, first compound 0.00316 µM
[40] = second compound 10 µM, first compound 0.01 µM
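Note: spheroids exposed to agents for seven days.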
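Throughout, for viability, T/C: 100% = DMSO vehicle control wells.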

CC(C)c1c(-c2ccccc2)nc2c(C#N)c[nH]n2c1=O + NC1CCC(NC2CC2c2ccccc2)CC1
> 10000 nM: IC50 (second compound 0.1 µM) | IC50 (second compound 0.316 µM) | IC50 (second compound 1 µM)
8290 nM: IC50 (second compound 3.16 µM)
inactive: viability, T/C [1] 93.2% | viability, T/C [2] 94.5% | viability, T/C [3] 90.9% | viability, T/C [4] 87.9% | viability, T/C [5] 83% | viability, T/C [6] 56.5% | viability, T/C [7] 87% | viability, T/C [8] 79.1% | viability, T/C [9] 86.3% | viability, T/C [10] 78.3% | viability, T/C [11] 71.4% | viability, T/C [12] 54.4% | viability, T/C [13] 72.2% | viability, T/C [14] 78.2% | viability, T/C [15] 78% | viability, T/C [16] 82.3% | viability, T/C [17] 78.7% | viability, T/C [18] 53.7% | viability, T/C [19] 85.4% | viability, T/C [20] 76.4% | viability, T/C [21] 77.8% | viability, T/C [22] 76% | viability, T/C [23] 68.3% | viability, T/C [24] 46.2% | viability, T/C [25] 70% | viability, T/C [26] 73.8% | viability, T/C [27] 76% | viability, T/C [28] 66.8% | viability, T/C [29] 54% | viability, T/C [30] 43.7%
4840 nM: IC50 (second compound 10 µM)

CC1COCCN1c1cc(-c2ccnn2C)c2ccnc(-c3ccn[nH]3)c2n1 (stereo not given) + NC1CCC(NC2CC2c2ccccc2)CC1
inactive: viability, T/C [31] 64.5% | viability, T/C [32] 61.4% | viability, T/C [1] 55% | viability, T/C [2] 38.3% | viability, T/C [3] 36.1% | viability, T/C [4] 14.8% | viability, T/C [33] 72.9% | viability, T/C [34] 58.8% | viability, T/C [7] 46.3% | viability, T/C [8] 38.2% | viability, T/C [9] 29.8% | viability, T/C [10] 15.3% | viability, T/C [35] 61.1% | viability, T/C [36] 59.7% | viability, T/C [13] 45.6% | viability, T/C [14] 36.8% | viability, T/C [15] 36.8% | viability, T/C [16] 17.9% | viability, T/C [37] 62.5% | viability, T/C [38] 54.7% | viability, T/C [19] 44.3% | viability, T/C [20] 39.8% | viability, T/C [21] 35.8% | viability, T/C [22] 19.2% | viability, T/C [39] 50% | viability, T/C [40] 55.5% | viability, T/C [25] 44.8% | viability, T/C [26] 38% | viability, T/C [27] 30.5% | viability, T/C [28] 17.3%
25 nM: IC50 (second compound 1 µM)
46.2 nM: IC50 (second compound 0.1 µM)
27 nM: IC50 (second compound 0.316 µM)
21.6 nM: IC50 (second compound 3.16 µM)
11.9 nM: IC50 (second compound 10 µM)

COc1ccc([C@@H](O)c2cc(-c3ncnc4cc(N5CCOCC5)ccc34)c(F)cc2Cl)nn1 + NC1CCC(NC2CC2c2ccccc2)CC1
847 nM: IC50 (second compound 3.16 µM)
639 nM: IC50 (second compound 10 µM)
906 nM: IC50 (second compound 1 µM)
943 nM: IC50 (second compound 0.1 µM)
582 nM: IC50 (second compound 0.316 µM)
inactive: viability, T/C [1] 91% | viability, T/C [2] 80.4% | viability, T/C [3] 69% | viability, T/C [4] 47.9% | viability, T/C [5] 37.7% | viability, T/C [6] 32.9% | viability, T/C [7] 80.3% | viability, T/C [8] 81.6% | viability, T/C [9] 60.6% | viability, T/C [10] 39.9% | viability, T/C [11] 37.7% | viability, T/C [12] 28.8% | viability, T/C [13] 76% | viability, T/C [14] 76.1% | viability, T/C [15] 66.9% | viability, T/C [16] 46.6% | viability, T/C [17] 35.6% | viability, T/C [18] 25.6% | viability, T/C [19] 79.5% | viability, T/C [20] 78.6% | viability, T/C [21] 65.3% | viability, T/C [22] 45.3% | viability, T/C [23] 37% | viability, T/C [24] 25.9% | viability, T/C [25] 63.2% | viability, T/C [26] 63.2% | viability, T/C [27] 56.3% | viability, T/C [28] 44.6% | viability, T/C [29] 33.3% | viability, T/C [30] 17%

O=C(C=Cn1cnc(-c2cc(C(F)(F)F)cc(C(F)(F)F)c2)n1)NNc1cnccn1 + NC1CCC(NC2CC2c2ccccc2)CC1
289 nM: IC50 (second compound 1 µM)
214 nM: IC50 (second compound 0.1 µM)
340 nM: IC50 (second compound 10 µM)
138 nM: IC50 (second compound 0.316 µM)
inactive: viability, T/C [31] 75.4% | viability, T/C [32] 78.2% | viability, T/C [1] 78.6% | viability, T/C [2] 59.9% | viability, T/C [3] 44.8% | viability, T/C [4] 24.6% | viability, T/C [33] 81.8% | viability, T/C [34] 86.2% | viability, T/C [7] 78.8% | viability, T/C [8] 49% | viability, T/C [9] 44.1% | viability, T/C [10] 25.2% | viability, T/C [35] 76% | viability, T/C [36] 74.7% | viability, T/C [13] 77% | viability, T/C [14] 68.2% | viability, T/C [15] 48.6% | viability, T/C [16] 20.1% | viability, T/C [37] 75.8% | viability, T/C [38] 86.9% | viability, T/C [19] 75.5% | viability, T/C [20] 67.2% | viability, T/C [21] 46.2% | viability, T/C [22] 25.3% | viability, T/C [39] 67.2% | viability, T/C [40] 71.7% | viability, T/C [25] 66.6% | viability, T/C [26] 61.8% | viability, T/C [27] 53.5% | viability, T/C [28] 17.3%
254 nM: IC50 (second compound 3.16 µM)
